Source: PubChem BioAssay AID2060497 (Molecular Pharmacology Branch, DTP, NCI, 2025)

Tested on: 317291-083-R-J1-PDC complex spheroids, viability
Assay: Anticancer human tumor 317291-083-R-J1-PDC patient-derived soft tissue sarcoma cell line growth inhibition [GQUAD]
Conditions: for IC50: curve of first compound; for viability, T/C: stronger effect = lower value
Outline: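 Viability of tumor cells grown as complex spheroids with endothelial and stromal cells, exposed to drug combinations. Top concentration at or near clinical Cmax (else 10 microM), diluted in half-log increments.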

[1] = second compound 0.0316 µM, first compound 0.0316 µM
[2] = second compound 0.0316 µM, first compound 0.316 µM
[3] = second compound 0.1 µM, first compound 0.0316 µM
[4] = second compound 0.1 µM, first compound 0.316 µM
[5] = second compound 0.316 µM, first compound 0.0316 µM
[6] = second compound 0.316 µM, first compound 0.316 µM
[7] = second compound 1 µM, first compound 0.0316 µM
[8] = second compound 1 µM, first compound 0.316 µM
[9] = second compound 3.16 µM, first compound 0.0316 µM
[10] = second compound 3.16 µM, first compound 0.316 µM
[11] = second compound 10 µM, first compound 0.0316 µM
[12] = second compound 10 µM, first compound 0.316 µM
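Note: spheroids exposed to compounds for one week before readout.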
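Throughout, for viability, T/C: percent viability relative to DMSO vehicle wells taken as 100%.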

Structure (SMILES): CC[C@@]1(O)C(=O)OCc2c1cc1n(c2=O)Cc2cc3c(CN(C)C)c(O)ccc3nc2-1 + Cc1cnc(CNC(=O)c2c(=O)c3ccc(N4CCCN(C)CC4)nc3n3c2sc2ccccc23)cn1
- IC50 (second compound 0.0316 µM): 35.5 nM
- IC50 (second compound 0.1 µM): 19 nM
- IC50 (second compound 0.316 µM): < 0.999 nM
- IC50 (second compound 1 µM): < 0.999 nM
- IC50 (second compound 3.16 µM): < 0.999 nM
- IC50 (second compound 10 µM): < 0.999 nM
- viability, T/C (second compound 0.0316 µM, first compound 0.000999 µM): 86.2%
- viability, T/C (second compound 0.0316 µM, first compound 0.00316 µM): 93.8%
- viability, T/C (second compound 0.0316 µM, first compound 0.00999 µM): 91.7%
- viability, T/C [1]: 53.3%
- viability, T/C (second compound 0.0316 µM, first compound 0.0999 µM): 20.8%
- viability, T/C [2]: 15.8%
- viability, T/C (second compound 0.1 µM, first compound 0.000999 µM): 71%
- viability, T/C (second compound 0.1 µM, first compound 0.00316 µM): 80.7%
- viability, T/C (second compound 0.1 µM, first compound 0.00999 µM): 78.1%
- viability, T/C [3]: 29%
- viability, T/C (second compound 0.1 µM, first compound 0.0999 µM): 21.9%
- viability, T/C [4]: 12.8%
- viability, T/C (second compound 0.316 µM, first compound 0.000999 µM): 43.5%
- viability, T/C (second compound 0.316 µM, first compound 0.00316 µM): 52.9%
- viability, T/C (second compound 0.316 µM, first compound 0.00999 µM): 28.2%
- viability, T/C [5]: 20.7%
- viability, T/C (second compound 0.316 µM, first compound 0.0999 µM): 17.3%
- viability, T/C [6]: 9.62%
- viability, T/C (second compound 1 µM, first compound 0.000999 µM): 35.7%
- viability, T/C (second compound 1 µM, first compound 0.00316 µM): 28.2%
- viability, T/C (second compound 1 µM, first compound 0.00999 µM): 25.6%
- viability, T/C [7]: 20.1%
- viability, T/C (second compound 1 µM, first compound 0.0999 µM): 14.7%
- viability, T/C [8]: 15.3%
- viability, T/C (second compound 3.16 µM, first compound 0.000999 µM): 39.7%
- viability, T/C (second compound 3.16 µM, first compound 0.00316 µM): 37.8%
- viability, T/C (second compound 3.16 µM, first compound 0.00999 µM): 16.1%
- viability, T/C [9]: 14.7%
- viability, T/C (second compound 3.16 µM, first compound 0.0999 µM): 13.4%
- viability, T/C [10]: 7.16%
- viability, T/C (second compound 10 µM, first compound 0.000999 µM): 28.9%
- viability, T/C (second compound 10 µM, first compound 0.00316 µM): 30.3%
- viability, T/C (second compound 10 µM, first compound 0.00999 µM): 45.9%
- viability, T/C [11]: 19.7%
- viability, T/C (second compound 10 µM, first compound 0.0999 µM): 24%
- viability, T/C [12]: 12.2%

Structure (SMILES): CC1COCCN1c1cc(C2(O)CC3CCC(C2)O3)c2cnn(-c3ccn[nH]3)c2n1 (centres undefined) + Cc1cnc(CNC(=O)c2c(=O)c3ccc(N4CCCN(C)CC4)nc3n3c2sc2ccccc23)cn1
- IC50 (second compound 0.0316 µM): < 31.6 nM
- IC50 (second compound 0.1 µM): < 31.6 nM
- IC50 (second compound 0.316 µM): < 31.6 nM
- IC50 (second compound 1 µM): < 31.6 nM
- IC50 (second compound 3.16 µM): < 31.6 nM
- IC50 (second compound 10 µM): < 31.6 nM
- viability, T/C [1]: 32.1%
- viability, T/C (second compound 0.0316 µM, first compound 0.1 µM): 22.9%
- viability, T/C [2]: 11.1%
- viability, T/C (second compound 0.0316 µM, first compound 1 µM): 10.5%
- viability, T/C (second compound 0.0316 µM, first compound 3.16 µM): 13%
- viability, T/C (second compound 0.0316 µM, first compound 10 µM): 3.33%
- viability, T/C [3]: 25.9%
- viability, T/C (second compound 0.1 µM, first compound 0.1 µM): 22.6%
- viability, T/C [4]: 10.6%
- viability, T/C (second compound 0.1 µM, first compound 1 µM): 11.6%
- viability, T/C (second compound 0.1 µM, first compound 3.16 µM): 28.6%
- viability, T/C (second compound 0.1 µM, first compound 10 µM): 2.82%
- viability, T/C [5]: 18.4%
- viability, T/C (second compound 0.316 µM, first compound 0.1 µM): 16.2%
- viability, T/C [6]: 26.7%
- viability, T/C (second compound 0.316 µM, first compound 1 µM): 11.9%
- viability, T/C (second compound 0.316 µM, first compound 3.16 µM): 11.1%
- viability, T/C (second compound 0.316 µM, first compound 10 µM): 2.89%
- viability, T/C [7]: 25.6%
- viability, T/C (second compound 1 µM, first compound 0.1 µM): 18.5%
- viability, T/C [8]: 12.9%
- viability, T/C (second compound 1 µM, first compound 1 µM): 12.1%
- viability, T/C (second compound 1 µM, first compound 3.16 µM): 11.7%
- viability, T/C (second compound 1 µM, first compound 10 µM): 5.12%
- viability, T/C [9]: 14.8%
- viability, T/C (second compound 3.16 µM, first compound 0.1 µM): 14.6%
- viability, T/C [10]: 11.1%
- viability, T/C (second compound 3.16 µM, first compound 1 µM): 12.7%
- viability, T/C (second compound 3.16 µM, first compound 3.16 µM): 15.6%
- viability, T/C (second compound 3.16 µM, first compound 10 µM): 0.73%
- viability, T/C [11]: 12.7%
- viability, T/C (second compound 10 µM, first compound 0.1 µM): 9.14%
- viability, T/C [12]: 16.9%
- viability, T/C (second compound 10 µM, first compound 1 µM): 24.7%
- viability, T/C (second compound 10 µM, first compound 3.16 µM): 12.1%
- viability, T/C (second compound 10 µM, first compound 10 µM): 2.17%
